Laboratory results reported in ChEMBL document CHEMBL5120927, “LEGO-Lipophosphonoxins: A Novel Approach in Designing Membrane Targeting Antimicrobials” (J Med Chem, 2022).

Experiments:
Pseudomonas aeruginosa [1] = assay: Antibacterial activity against Pseudomonas aeruginosa ATCC 27853 = CCM 3955 assessed as inhibition of bacterial growth incubated for 24 hrs by microdilution assay; format: functional
Staphylococcus aureus [2] = assay: Antibacterial activity against methicillin resistant Staphylococcus aureus 4591/A assessed as reduction in microbial growth incubated for 24 hrs by microdilution assay; format: functional
Pseudomonas aeruginosa [3] = assay: Antibacterial activity against multidrug-resistant Pseudomonas aeruginosa assessed as reduction in microbial growth incubated for 24 hrs by microdilution assay; format: functional
Escherichia coli [4] = assay: Antibacterial activity against Escherichia coli ATCC 25922 = CCM 3954 assessed as inhibition of bacterial growth incubated for 24 hrs in presence of BSA by microdilution assay; format: functional
Staphylococcus aureus [5] = assay: Antibacterial activity against Staphylococcus aureus ATCC 29213 = CCM 4223 assessed as inhibition of bacterial growth incubated for 24 hrs in presence of BSA by microdilution assay; format: functional
Escherichia coli [6] = assay: Antibacterial activity against Escherichia coli ATCC 25922 = CCM 3954 assessed as inhibition of bacterial growth incubated for 24 hrs by microdilution assay; format: functional
Enterococcus faecium = assay: Antibacterial activity against vancomycin resistant Enterococcus faecium 419/ANA assessed as reduction in microbial growth incubated for 24 hrs by microdilution assay; format: functional
[7] = system: Staphylococcus epidermidis; assay: Antibacterial activity against Staphylococcus epidermidis CCM 7221 assessed as inhibition of bacterial growth incubated for 24 hrs by microdilution assay; format: functional
Enterococcus faecalis = assay: Antibacterial activity against Enterococcus faecalis ATCC 29212 = CCM 4224 assessed as inhibition of bacterial growth incubated for 24 hrs by microdilution assay; format: functional
Staphylococcus aureus [8] = assay: Antibacterial activity against Staphylococcus aureus ATCC 29213 = CCM 4223 assessed as inhibition of bacterial growth incubated for 24 hrs by microdilution assay; format: functional
Escherichia coli [9] = assay: Antibacterial activity against multidrug-resistant Escherichia coli CE5556 expressing CTX-M-15 assessed as reduction in microbial growth incubated for 24 hrs by microdilution assay; format: functional
[10] = Gradient chromatographic hydrophobicity index of the compound at pH 3.7 by HPLC analysis; format: ADME
[11] = Hemolytic activity in human RBC assessed as haemoglobin release measured after 3 hr; format: toxicity, cell-based, Erythrocyte; settings: red blood cells (erythrocytes)

Compound | MIC (Pseudomonas aeruginosa [1]) [µg/mL] | MIC (Staphylococcus aureus [2]) [µg/mL] | MIC (Pseudomonas aeruginosa [3]) [µg/mL] | MIC (Escherichia coli [4]) [µg/mL] | MIC (Staphylococcus aureus [5]) [µg/mL] | MIC (Escherichia coli [6]) [µg/mL] | MIC (Enterococcus faecium) [µg/mL] | MIC [7] [µg/mL] | MIC (Enterococcus faecalis) [µg/mL] | MIC (Staphylococcus aureus [8]) [µg/mL] | MIC (Escherichia coli [9]) [µg/mL] | CHI [10] | HC50 at 3 h [11] [µg/mL]
CCCCCCOP(=O)(CCN(CCCN)CCCN)OCCCCCCOP(=O)(CCN(CCCN)CCCN)OCCCCCC.Cl.Cl.Cl.Cl.Cl.Cl (stereo not given) | > 128 | 16 | > 128 | 64 | 16 | 32 | > 128 | 4 | > 128 | 8 | 128 | 28.7 | 634
CCCCC/C=C\CCOP(=O)(CCN(CCCNC(=N)N)CCCNC(=N)N)OCCCCCOP(=O)(CCN(CCCNC(=N)N)CCCNC(=N)N)OCC/C=C\CCCCC.Cl.Cl.Cl.Cl.Cl.Cl (stereo not given) | 8 | 1 | 8 | 1 | 1 | 1 | 8 | 1 | 4 | 1 | 1 | 36.4 | 121
Cl.Cl.Cl.Cl.Cl.Cl.N=C(N)NCCCN(CCCNC(=N)N)CCP(=O)(OCCCCCOP(=O)(CCN(CCCNC(=N)N)CCCNC(=N)N)OCC12CC3CC(CC(C3)C1)C2)OCC12CC3CC(CC(C3)C1)C2 (stereo not given) | 8 | 1 | 8 | 2 | 0.5 | 1 | 8 | 0.5 | 4 | 1 | 1 | 333 | 259
Cl.Cl.Cl.Cl.Cl.Cl.NCCCN(CCCN)CCP(=O)(OCCCCCCOP(=O)(CCN(CCCN)CCCN)OCCC12CC3CC(CC(C3)C1)C2)OCCC12CC3CC(CC(C3)C1)C2 (stereo not given) | 1 | 0.5 | 2 | 1 | 0.2 | > 128 | 2 | 0.5 | 1 | 0.5 | 1 | 38.4 | 72.2
CCCCCCOP(=O)(CCN(CCN)CCN)OCCCCCCCCOP(=O)(CCN(CCN)CCN)OCCCCCC.Cl.Cl.Cl.Cl.Cl.Cl (stereo not given) | 32 | 2 | 64 | 16 | 1 | 8 | 128 | 2 | 16 | 2 | 64 | 38.6 | 231
Cl.Cl.Cl.Cl.Cl.Cl.NCCCN(CCCN)CCP(=O)(OCCCCCCOP(=O)(CCN(CCCN)CCCN)OCCCC1CCCCC1)OCCCC1CCCCC1 (stereo not given) | 4 | 1 | 4 | 0.5 | 1 | 1 | 16 | 0.5 | 2 | 1 | 1 | 36.4 | 183
CC/C=C\CCCOP(=O)(CCN(CCCN)CCCN)OCCCOP(=O)(CCN(CCCN)CCCN)OCCC/C=C\CC.Cl.Cl.Cl.Cl.Cl.Cl (stereo not given) | > 128 | 64 | > 128 | > 128 | > 128 | > 128 | > 128 | 32 | > 128 | 128 | > 128 | 25.1 | > 200
CC/C=C\CCCOP(=O)(CCN(CCCN)CCCN)OCCCCCCOP(=O)(CCN(CCCN)CCCN)OCCC/C=C\CC.Cl.Cl.Cl.Cl.Cl.Cl (stereo not given) | > 128 | 16 | > 128 | 128 | 16 | 64 | > 128 | 4 | 128 | 8 | 64 | 2.4 | > 200
CCCCCOP(=O)(CCN(CCCN)CCCN)OCCCCCCCCOP(=O)(CCN(CCCN)CCCN)OCCCCC.Cl.Cl.Cl.Cl.Cl.Cl (stereo not given) | > 128 | 8 | 128 | > 128 | 32 | > 128 | > 128 | 4 | > 128 | 16 | > 128 | 27.5 | > 100
CCCCCOP(=O)(CCN(CCN)CCN)OCCCCCCCCOP(=O)(CCN(CCN)CCN)OCCCCC.Cl.Cl.Cl.Cl.Cl.Cl (stereo not given) | > 128 | 8 | > 128 | > 128 | 8 | 2 | > 128 | 2 | > 128 | 8 | > 128 | 34.7 | > 200
Cl.Cl.Cl.Cl.Cl.Cl.NCCCN(CCCN)CCP(=O)(OCCCOP(=O)(CCN(CCCN)CCCN)OCC1CCCC1)OCC1CCCC1 (stereo not given) | > 128 | > 128 | > 128 | > 128 | > 128 | > 128 | > 128 | > 128 | > 128 | > 128 | > 128 | 5 | > 1000
CCCC/C=C\CCOP(=O)(CCN(CCN)CCN)OCCCCCCOP(=O)(CCN(CCN)CCN)OCC/C=C\CCCC.Cl.Cl.Cl.Cl.Cl.Cl (stereo not given) | 16 | 1 | 8 | 2 | 2 | 1 | 32 | 0.5 | 4 | 1 | 2 | 40.1 | 254
CCCCCCCCOP(=O)(CCN(CCN)CCN)OCCCCCCCCOP(=O)(CCN(CCN)CCN)OCCCCCCCC.Cl.Cl.Cl.Cl.Cl.Cl (stereo not given) | 1 | 3 | 1 | 5 | 0.2 | 64 | 2 | 0.2 | 1 | 0.5 | 1 | 45.2 | 19
CCCCC/C=C\CCCOP(=O)(CCN(CCCN)CCCN)OCCCCCCOP(=O)(CCN(CCCN)CCCN)OCCC/C=C\CCCCC.Cl.Cl.Cl.Cl.Cl.Cl (stereo not given) | 2 | 0.5 | 2 | 1 | 1 | 0.5 | 2 | 0.5 | 1 | 0.5 | 1 | 40.6 | 43
CC(C)COP(=O)(CCN(CCCN)CCCN)OCCCCCCCCOP(=O)(CCN(CCCN)CCCN)OCC(C)C.Cl.Cl.Cl.Cl.Cl.Cl (stereo not given) | > 128 | > 128 | > 128 | > 128 | > 128 | > 128 | > 128 | 32 | > 128 | > 128 | > 128 | 25.2 | > 1000
CCCC/C=C\CCOP(=O)(CCN(CCCN)CCCN)OCCCOP(=O)(CCN(CCCN)CCCN)OCC/C=C\CCCC.Cl.Cl.Cl.Cl.Cl.Cl (stereo not given) | 64 | 16 | 128 | 128 | 32 | 128 | > 128 | 8 | 128 | 16 | 128 | 31.3 | > 200
CCCCCCCCOP(=O)(CCN(CCCN)CCCN)OCCCCCCCCOP(=O)(CCN(CCCN)CCCN)OCCCCCCCC.Cl.Cl.Cl.Cl.Cl.Cl (stereo not given) | 2 | 5 | 2 | 0.5 | 0.25 | 1 | 4 | 3 | 1 | 0.5 | 1 | 38.7 | 683
CCCCOP(=O)(CCN(CCCN)CCCN)OCCCCCCCCCCOP(=O)(CCN(CCCN)CCCN)OCCCC.Cl.Cl.Cl.Cl.Cl.Cl (stereo not given) | > 128 | 8 | > 128 | > 128 | 16 | > 128 | > 128 | 4 | 128 | 16 | > 128 | 27.3 | > 500
CCCCOP(=O)(CCN(CCCN)CCCN)OCCCCCCCCCCCCOP(=O)(CCN(CCCN)CCCN)OCCCC.Cl.Cl.Cl.Cl.Cl.Cl (stereo not given) | 32 | 4 | 16 | 128 | 16 | 128 | > 128 | 1 | 32 | 4 | > 128 | 31.4 | > 500
CCCCCCCCCCOP(=O)(CCN(CCCN)CCCN)OCCCCCCOP(=O)(CCN(CCCN)CCCN)OCCCCCCCCCC.Cl.Cl.Cl.Cl.Cl.Cl (stereo not given) | 1 | 0.5 | 2 | 1 | 0.2 | 1 | 1 | 0.5 | 1 | 1 | 1 | 44 | 16
